≈ marks a conversion by molar mass, not a printed value.

For orientation: IC50 means the midpoint of a concentration-inhibition curve.

In one assay the test system is HUVECs (human umbilical vein endothelial cells). The experiment in a line: Inhibitory effect of fumagillol derivative on HUVEC cell growth (colorimetry). It is filed as cell-based. To be noted: Homo sapiens, HUVEC, HUVEC growth, cultured 2–3 days with compound, absorption at 490 nm; read-out: IC50. The method, then: Using the HUVECs (human umbilical vein endothelial), the effect of the fumagillol derivative of the present invention on cell growth was evaluated.
The HUVECs were added to M199 medium supplemented with 20% FBS (fetal bovine serum), 100 U/ml penicillin, 100 μg/ml streptomycin, 1.5 g/L sodium bicarbonate, 0.1 mg/ml endothelial cell growth supplement (Sigma) and 0.1 mg/ml heparin (Sigma), after which the cells were incubated in an incubator at 37° C. under 5% CO2. Cells were subcultured a maximum of 8 times before being discarded.
In order to evaluate inhibitory activity of the fumagillin derivative on growth of HUVECs, the inventive compound was dissolved in DMSO and its concentration was adjusted from 10 mM to 1 mM. Cells were aliquotted to 96 well plates at a density of 2×10^3 cells per well and incubated for about 12–24 hours to be properly attached to the plate. Thereafter, the medium was replaced with new medium. The cells were treated with the compound obtained from each of the above examples at various concentration ranges of from 10 μM to […], and cultured for 2–3 days, followed by removing 100 μl of the medium from each well.
Colorimetry was performed to determine the extent of cell growth. The cells on each plate was added with 20 μl of aqueous one solution and then incubated at 37° C. under 5% CO2 for 2 hours. Using a 96-well plate reader, absorption was measured at 490 nm.
As such, a conventional TNP-470 having angiogenesis inhibitory effect was used as a control.
Take `CO[C@@H]1[C@H](OC(=O)CNC(C)(C)CC(C)=O)CC[C@]2(CO2)[C@H]1[C@@]1(C)OC1CC=C(C)C` (some centres unmarked) [Ex. 72, 6-O-(1,1-dimethyl-3-oxobutylamino)acetyl fumagillol]: the IC50 turned out to be 330 ng/mL (≈ 754 nM).

Take `COc1ccc(NCC(=O)O[C@@H]2CC[C@]3(CO3)[C@@H]([C@@]3(C)OC3CC=C(C)C)[C@@H]2OC)cc1CN(C)C` (some centres unmarked) [Ex. 10, 6-O-(3-(dimethylaminomethyl)-4-methoxyaniline)acetyl fumagillol]: the IC50 worked out at 0.06 ng/mL (≈ 0.119 nM).

As to `COC(=O)C(C)NCC(=O)O[C@@H]1CC[C@]2(CO2)[C@@H]([C@@]2(C)OC2CC=C(C)C)[C@@H]1OC` (some centres unmarked) [Ex. 74, 6-O-(alaninemethylesteramino)acetyl fumagillol], the IC50 is 800 ng/mL (≈ 1880 nM).

For `COc1ccc(NCC(=O)O[C@@H]2CC[C@]3(CO3)[C@@H]([C@@]3(C)OC3CC=C(C)C)[C@@H]2OC)cc1` (some centres unmarked) [Ex. 1, 6-O-(4-methoxyaniline)acetyl fumagillol], the IC50 is 0.0071 ng/mL (≈ 0.0159 nM).

For `CO[C@@H]1[C@H](OC(=O)CNC2CCCCC2)CC[C@]2(CO2)[C@H]1[C@@]1(C)OC1CC=C(C)C` (some centres unmarked) [Ex. 66, 6-O-(cyclohexylamino)acetyl fumagillol], the IC50 stood at 0.6 ng/mL (≈ 1.42 nM).

On to `CO[C@@H]1[C@H](OC(=O)CNc2ccc(OC(C)=O)cc2)CC[C@]2(CO2)[C@H]1[C@@]1(C)OC1CC=C(C)C` (some centres unmarked) [Ex. 33, 6-O-(4-acetoxyaniline)acetyl fumagillol], for which the IC50 stood at 109 ng/mL (≈ 230 nM).

With `COc1cc(NCC(=O)O[C@@H]2CC[C@]3(CO3)[C@@H]([C@@]3(C)OC3CC=C(C)C)[C@@H]2OC)cc(O)c1OC` (some centres unmarked) [Ex. 27, 6-O-(3,4-dimethoxy-5-hydroxyaniline)acetyl fumagillol], the IC50 came to 88 ng/mL (≈ 179 nM).

Consider `COC(=O)C(NCC(=O)O[C@@H]1CC[C@]2(CO2)[C@@H]([C@@]2(C)OC2CC=C(C)C)[C@@H]1OC)C(C)(C)C` (some centres unmarked) [Ex. 75, 6-O-(methyl-2-amino-3,3-dimethylbutanoate)acetyl fumagillol], for which the IC50 came out at 2400 ng/mL (≈ 5130 nM).

With `CC/C=C(C)/C=C/CNCC(=O)O[C@@H]1CC[C@]2(CO2)[C@@H]([C@@]2(C)OC2CC=C(C)C)[C@@H]1OC` (some centres unmarked) [Ex. 57, 6-O-(4-methyl-hepta-2,4-dienylamino)acetyl fumagillol], the IC50 is 420 ng/mL (≈ 938 nM).

For `C#CC(C)(C)NCC(=O)O[C@@H]1CC[C@]2(CO2)[C@@H]([C@@]2(C)OC2CC=C(C)C)[C@@H]1OC` (some centres unmarked) [Ex. 59, 6-O-(1,1-dimethyl-2-propinylamino)acetyl fumagillol], the IC50 came to 174 ng/mL (≈ 429 nM).

For `COc1ccc(NCC(=O)O[C@@H]2CC[C@]3(CO3)[C@@H]([C@@]3(C)OC3CC=C(C)C)[C@@H]2OC)c(OC)c1` (some centres unmarked) [Ex. 3, 6-O-(2,4-dimethoxyaniline)acetyl fumagillol], the IC50 is 0.09 ng/mL (≈ 0.189 nM).

Consider `C=CCOc1ccc(NCC(=O)O[C@@H]2CC[C@]3(CO3)[C@@H]([C@@]3(C)OC3CC=C(C)C)[C@@H]2OC)cc1` (some centres unmarked) [Ex. 7, 6-O-(4-allyloxyaniline)acetyl fumagillol], for which the IC50 turned out to be 21 ng/mL (≈ 44.5 nM).

Regarding `CO[C@@H]1[C@H](OC(=O)CNC2CCC(C(C)(C)C)CC2)CC[C@]2(CO2)[C@H]1[C@@]1(C)OC1CC=C(C)C` (some centres unmarked) [Ex. 67, 6-O-(4-tert-butyl-cyclohexylamino)acetyl fumagillol], the IC50 turned out to be 0.06 ng/mL (≈ 0.126 nM).

On to `CCNCC(=O)O[C@@H]1CC[C@]2(CO2)[C@@H]([C@@]2(C)OC2CC=C(C)C)[C@@H]1OC` (some centres unmarked) [Ex. 41, 6-O-(ethylamino)acetyl fumagillol], for which the IC50 was 20 ng/mL (≈ 54.4 nM).

Turning to `CO[C@@H]1[C@H](OC(=O)CNc2ccc(O)cc2)CC[C@]2(CO2)[C@H]1[C@@]1(C)OC1CC=C(C)C` (some centres unmarked) [Ex. 21, 6-O-(4-hydroxyaniline)acetyl fumagillol], the IC50 was 185 ng/mL (≈ 429 nM).

For `CO[C@@H]1[C@H](OC(=O)CNC2CCC2)CC[C@]2(CO2)[C@H]1[C@@]1(C)OC1CC=C(C)C` (some centres unmarked) [Ex. 64, 6-O-(cyclobutylamino)acetyl fumagillol], the IC50 amounted to 0.07 ng/mL (≈ 0.178 nM).

For the compound `COc1cc(NCC(=O)O[C@@H]2CC[C@]3(CO3)[C@@H]([C@@]3(C)OC3CC=C(C)C)[C@@H]2OC)cc(OC)c1OC` (some centres unmarked) [Ex. 2, 6-O-(3,4,5-trimethoxyaniline)acetyl fumagillol], the IC50 is 0.15 ng/mL (≈ 0.297 nM).

As to `CO[C@@H]1[C@H](OC(=O)CNCC(C)=O)CC[C@]2(CO2)[C@H]1[C@@]1(C)OC1CC=C(C)C` (some centres unmarked) [Ex. 71, 6-O-(2-oxo-propylamino)acetyl fumagillol], the 50% inhibitory concentration (IC50) amounted to 260 ng/mL (≈ 657 nM).

`CNCCOc1ccc(NCC(=O)O[C@@H]2CC[C@]3(CO3)[C@@H]([C@@]3(C)OC3CC=C(C)C)[C@@H]2OC)cc1` (some centres unmarked) [Ex. 30, 6-O-(4-ethylaminoethoxyaniline)acetyl fumagillol]: the IC50 came out at 0.09 ng/mL (≈ 0.184 nM).

Take `CO[C@@H]1[C@H](OC(=O)CNc2ccc(OCCO)cc2)CC[C@]2(CO2)[C@H]1[C@@]1(C)OC1CC=C(C)C` (some centres unmarked) [Ex. 35, 6-O-(4-hydroxyethoxyaniline)acetyl fumagillol]: the IC50 stood at 116 ng/mL (≈ 244 nM).

Regarding `CO[C@@H]1C(OC(=O)CNC2CC2)CC[C@](O)(CCl)[C@H]1C1(C)OC1CC=C(C)C` (stereo in doubt) [Ex. 78, 4-((cyclopropylamino)acetyl)oxy-2-(1,2-epoxy-1,5-dimethyl-4-hexenyl)-3-methoxy-1-chloromethyl-1-cyclohexanol], the half-inhibitory concentration (IC50) was determined as 0.014 ng/mL (≈ 0.0337 nM).

In the case of `CCCC(C)NCC(=O)O[C@@H]1CC[C@]2(CO2)[C@@H]([C@@]2(C)OC2CC=C(C)C)[C@@H]1OC` (some centres unmarked) [Ex. 49, 6-O-(1-methyl-butylamino)acetyl fumagillol], the IC50 stood at 44 ng/mL (≈ 107 nM).

On to `CO[C@@H]1[C@H](OC(=O)CNc2ccc(Cl)cc2)CC[C@]2(CO2)[C@H]1[C@@]1(C)O[C@@H]1CC=C(C)C` [Ex. 19, 6-O-(4-chloroaniline)acetyl fumagillol], for which the IC50 came out at 174 ng/mL (≈ 387 nM).

Turning to `CO[C@@H]1[C@H](OC(=O)CNc2ccc([N+](=O)[O-])cc2)CC[C@]2(CO2)[C@H]1[C@@]1(C)OC1CC=C(C)C` (some centres unmarked) [Ex. 24, 6-O-(4-nitroaniline)acetyl fumagillol], the IC50 came to 181 ng/mL (≈ 393 nM).

`CCC(C)CNCC(=O)O[C@@H]1CC[C@]2(CO2)[C@@H]([C@@]2(C)OC2CC=C(C)C)[C@@H]1OC` (some centres unmarked) [Ex. 46, 6-O-(2-methyl-butylamino)acetyl fumagillol]: the IC50 was determined as 2600 ng/mL (≈ 6350 nM).

As for `CO[C@@H]1[C@H](OC(=O)CNC(C)C)CC[C@]2(CO2)[C@H]1[C@@]1(C)OC1CC=C(C)C` (some centres unmarked) [Ex. 42, 6-O-(isopropylamino)acetyl fumagillol], the IC50 stood at 12 ng/mL (≈ 31.5 nM).

`COc1ccc(NCC(=O)O[C@@H]2CC[C@]3(CO3)[C@@H]([C@@]3(C)OC3CC=C(C)C)[C@@H]2OC)cc1OC(C)C` (some centres unmarked) [Ex. 12, 6-O-(3-isopropoxy-4-methoxyaniline)acetyl fumagillol]: the IC50 was determined as 0.07 ng/mL (≈ 0.139 nM).

In the case of `CCCNCC(=O)O[C@@H]1CC[C@]2(CO2)[C@@H]([C@@]2(C)OC2CC=C(C)C)[C@@H]1OC` (some centres unmarked) [Ex. 43, 6-O-(propylamino)acetyl fumagillol], the IC50 turned out to be 2400 ng/mL (≈ 6290 nM).

Turning to `COc1ccc(NCC(=O)O[C@@H]2CC[C@]3(CO3)[C@@H]([C@@]3(C)OC3CC=C(C)C)[C@@H]2OC)cc1C#N` (some centres unmarked) [Ex. 9, 6-O-(3-cyano-4-methoxyaniline)acetyl fumagillol], the IC50 is 0.63 ng/mL (≈ 1.34 nM).

As for `COc1c(C)cc(NCC(=O)O[C@@H]2CC[C@]3(CO3)[C@@H]([C@@]3(C)OC3CC=C(C)C)[C@@H]2OC)cc1C` (some centres unmarked) [Ex. 15, 6-O-(3,5-dimethyl-4-methoxyaniline)acetyl fumagillol], the IC50 was 0.06 ng/mL (≈ 0.127 nM).

Regarding `CCCCNCC(=O)O[C@@H]1CC[C@]2(CO2)[C@@H]([C@@]2(C)OC2CC=C(C)C)[C@@H]1OC` (some centres unmarked) [Ex. 44, 6-O-(1-butylamino)acetyl fumagillol], the IC50 came to 3200 ng/mL (≈ 8090 nM).

On to `CO[C@@H]1[C@H](OC(=O)CNc2ccc(OCC(C)C)cc2)CC[C@]2(CO2)[C@H]1[C@@]1(C)OC1CC=C(C)C` (some centres unmarked) [Ex. 11], for which the IC50 was 0.08 ng/mL (≈ 0.164 nM).

For `CO[C@@H]1C(OC(=O)CNC2CCC2)CC[C@](O)(CCl)[C@H]1C1(C)OC1CC=C(C)C` (stereo in doubt) [Ex. 79, 4-((cyclobutylamino)acetyl)oxy-2-(1,2-epoxy-1,5-dimethyl-4-hexenyl)-3-methoxy-1-chloromethyl-1-cyclohexanol], the concentration for half-maximal inhibition (IC50) amounted to 0.037 ng/mL (≈ 0.086 nM).

Still in this assay, the particulars now being: Homo sapiens; HUVEC growth, cultured 2–3 days with compound, absorption at 490 nm; read-out: IC50.
As for `COc1ccc(NCC(=O)O[C@@H]2CC[C@]3(CO3)[C@@H]([C@@]3(C)OC3CC=C(C)C)[C@@H]2OC)cc1OC` (some centres unmarked) [Ex. 4, 6-O-(3,4-dimethoxyaniline)acetyl fumagillol], the IC50 turned out to be 0.08 ng/mL (≈ 0.168 nM).

With `CO[C@@H]1[C@H](OC(=O)CNC(C(C)C)C(C)C)CC[C@]2(CO2)[C@H]1[C@@]1(C)OC1CC=C(C)C` (some centres unmarked) [Ex. 54, 6-O-(1-isopropyl-2-methylpropylamino)acetyl fumagillol], the concentration for half-maximal inhibition (IC50) worked out at 11 ng/mL (≈ 25.1 nM).

For the compound `C=CCC(NCC(=O)O[C@@H]1CC[C@]2(CO2)[C@@H]([C@@]2(C)OC2CC=C(C)C)[C@@H]1OC)C(=O)OC` (some centres unmarked) [Ex. 76, 6-O-(allylglycinemethylester)acetyl fumagillol], the IC50 was found to be 1490 ng/mL (≈ 3300 nM).

Take `CO[C@@H]1[C@H](OC(=O)CNc2ccccc2)CC[C@]2(CO2)[C@H]1[C@@]1(C)OC1CC=C(C)C` (some centres unmarked) [Ex. 18, 6-O-(aniline)acetyl fumagillol]: the IC50 was found to be 17 ng/mL (≈ 40.9 nM).

The assay is the same for the next values; noted with them: relative to TNP-470.
Regarding `COc1ccc(NCC(=O)O[C@@H]2CC[C@]3(CO3)[C@@H]([C@@]3(C)OC3CC=C(C)C)[C@@H]2OC)cc1` (some centres unmarked) [Ex. 1, 6-O-(4-methoxyaniline)acetyl fumagillol], the “inhibitory effect on HUVEC, times greater than TNP-470” value is 2000 times.

The record behind these values is patent publication US7087768B2, “Fumagillol derivatives and preparing method thereof” (Equispharm Co., Ltd., priority 2001, dated 2006).
